# Results from a melting point compilation (Tetko et al.; mined from patent text by program, amines drawn as free bases though some values may be those of a salt).
# Residues, ends and D or L forms follow the SMILES beside them. *: point of attachment. Propionyl = CCC(=O)*; NHPh = c1ccc(N*)cc1
row,Compound,melting point [°C]
1,COc1ccc(N2C(=O)C3Cc4c(ncn4Cc4ccccc4)CN3C2=S)cc1 (stereo not given),100 to 120
2,CC(=O)NCC1CN(c2ccc(N3CCN(c4nc5cccc(F)c5o4)CC3)c(F)c2)C(=O)O1 (stereo not given),201 to 202
3,Fc1cccc(CC[C@H]2CN(Cc3ccccc3)CCN2Cc2ccccc2)c1,69 to 71
4,O=C(Nc1nc(C(C(=O)O)=C(Cl)C(=O)OCc2ccccc2)cs1)OCc1ccccc1,173 to 174
5,CCN(CC)C(C)CN(c1c(C)cccc1C)S(C)(=O)=O (stereo not given),58 to 60
6,c1cncc(N=C2SCC3Cc4ccccc4N23)c1 (racemic),131
7,CN1C(C(=O)O)C(=O)c2ccccc2S1(=O)=O (stereo not given),144 to 146
8,O=Cc1cnc2n1CCc1ccccc1C2=C1CCN(C2CCN(C(=O)c3cc(C(F)(F)F)cc(C(F)(F)F)c3)C(Cc3ccccc3)C2)CC1 (stereo not given),126
9,O=S(=O)(Nc1cccc(C=C2c3ccccc3CCc3ccccc32)c1)c1ccccc1,122
10,CN(C)CCOc1cc(-c2ccccc2)nn1N,80
11,C=C(C)n1cc(C(=O)O)c(=O)c2cc(F)c(N3CC[C@H](N)C3)cc21,249 to 255
12,CC1C(=O)CN[C@H]2c3ccc(Cl)cc3CC[C@H]12 (stereo not given in full),71.5 to 73
13,O=C(Nc1cccc([N+](=O)[O-])c1)NC1N=C(c2ccccc2F)c2ccccc2N(CC(=O)N2CC3CCC(CC3)C2)C1=O (racemic),180 to 187
14,CC(C)c1cc(Cl)nc(C(C)C)c1N,53 to 56
15,CCOC(=O)c1cn(C2CC2)c2c(F)c(F)c(F)c(N)c2c1=O,223 to 225
16,CC(Nc1ncccc1C#N)c1c(Cl)cccc1Cl (stereo not given),84.4
17,CN(C)c1ccc2c(=O)c(-c3nnnn3C)cn(C)c2c1,280 to 283
18,COc1cc(C=CC(=O)C(Cc2ccccc2)C(=O)C=Cc2ccc(O)c(OC)c2)ccc1O (stereo not given),139 to 141
19,COc1ccc(Cc2nnc(-c3ccc4occc4c3)o2)cc1,108 to 109
20,COc1ccc(-c2nc(-c3cccnc3)c(C)n2C)c(OC)c1,129 to 131
21,COc1cc(C)c(C2=C(C)CN(O)C=C2C)c(C)c1,194 to 195

row,Compound,melting point [°C]
1,Cc1nc2cc3c(cc2s1)C1(CO3)C(=O)N(Cc2ncc(Cl)n2C)c2ccccc21 (stereo not given),177 to 178
2,Cc1cc2c(cc1C)-n1nnnc1C=C(c1ccc(-n3c(C)nc4cnccc43)cc1)N2,315
3,COC(=O)c1cncc(OCc2ccc(OCc3nc(-c4ccccc4)oc3C)cc2)c1,138 to 139
4,Clc1ccc(Cn2cc(C=NNc3nc(-c4ccc(Cl)cc4Cl)cs3)c3ccccc32)c(Cl)c1,185
5,CC1CCN(c2nn3ccnc3c3c2CCCC3)CC1,95 to 95.5
6,Cc1sc(-c2ccccc2)nc1COc1cc(COc2ccccc2CC(=O)O)on1,147 to 148
7,CCSC1(SC)CCC2C3CCC4=CC(=O)C=CC4(C)C3(F)C(OC(C)=O)CC21C (stereo not given),140 to 142
8,COC(=O)c1cc2c(s1)[C@@H](N1CCCCC1=O)[C@H](OCc1ccccc1)C(C)(C)O2 (relative stereo),144 to 145
9,CSc1ccc(NC(=N)c2ccc(C(F)(F)F)cc2)cc1,144 to 146
10,CN(C)c1ccc(-c2cccc3c2C2(COc4cc5c(cc42)OCCO5)C(=O)N3Cc2ccccn2)cn1 (stereo not given),187 to 188
11,Nc1c(Br)cc(Br)c(O)c1Br,119
12,CCOc1ccc2nc3cc(OC)c(=O)c(Cl)c-3sc2c1,236 to 239
13,CCOC(=O)C(O)=CC=C(SC)C(=O)c1ccc(O)c(O)c1,156
14,O=C(NCC1CC1)c1c(NC(=O)c2cc(C(F)(F)F)nn2-c2ncccc2Cl)c(Br)cc2cn[nH]c12,144 to 150
15,CCC(=O)N(Cc1cnc(Cl)s1)C(=N[N+](=O)[O-])NC,89 to 90
16,CCC(=O)N[C@@H](C)C(=O)N[C@@H](C)C(=O)Nc1ccccc1 (Propionyl-Ala-Ala-NHPh),281 to 284
17,N[C@@H](C[C@@H](CC#Cc1ccccc1)C(=O)O)C(=O)O,164 to 166
18,ClCCOc1cccc2[nH]ccc12,60
19,Cc1cc(Cl)ccc1NC(=O)NC(=O)C(Cl)CCl (stereo not given),111 to 113
20,Nc1cc(NC(=O)c2cc3cc(F)ccc3n2Cc2cccc(F)c2)ccn1,217 to 218
21,CCCCCC(C)C(C)c1cc(OC)c2c(c1)OC(C)(C)C1=C2CN(C(=N)OC)CC1 (stereo not given),134 to 136

row,Compound,melting point [°C]
1,CCCC1=C(C(=O)OCC)C(c2cccc(OC)c2OC)c2c[nH]nc2N1 (stereo not given),205 to 206
2,COc1ccc(-c2nnn(-c3ccc(Cl)cc3Cl)c2N)cc1,149 to 151
3,CCCCN1C(N)=NS(=O)(=O)NC1Oc1cccc(C)c1 (stereo not given),217 to 219
4,Cc1cc(N2CC=C(C(N)=O)CC2)c2cccc(Br)c2n1,225 to 227
5,Nc1ncnc2c1nc(OC(=O)c1ccccc1)n2Cc1ccccc1,227 to 229
6,CCCCCCCCC[C@@H](CC(N)=O)N(CCC)C(=O)[C@H](CCCC(=O)O)NC(=O)c1cn(Cc2ccccc2)c2ccccc12,155 to 160
7,CNS(=O)(=O)/C=C/c1cc(Cl)cnc1N,194 to 198
8,CC1=Nc2ccccc2N(Cc2ccccc2)C(=O)C1C/C=C/c1ccccc1 (stereo not given),152 to 154
9,COc1cc(COc2nn(-c3ccccc3)cc2/C=C/S(C)(=O)=O)ccc1OCc1nc(-c2ccco2)oc1C,152 to 153
10,CN1CCC(Nc2ccccc2OCc2ccccc2)CC1,90 to 95
11,CC(=NNc1ccc(C2=NNC(=O)CC2C)cc1)c1ccncc1 (stereo not given),246 to 248
12,COc1ccc(Cc2ccc(C(=O)O)nc2)cc1,145 to 147
13,Cc1c(-c2ccccc2)c(N2CC[C@H](N(C)C)C2)c2oc(N3CC(CO)C3)nc2c1C#N,48 to 51
14,CCc1ccc2c(c1)C=Cc1cc(C)ccc1C2c1cn(-c2ccnc(N(C)CC(=O)Nc3nc(CC(=O)O)cs3)n2)c(=O)[nH]c1=O (stereo not given),188
15,CC1(C)N=C(c2ccccc2)CC1c1ccncc1 (stereo not given),90 to 92
16,Cc1nn(-c2ccc(C(F)(F)F)cn2)cc1COc1cc(CCC(=O)O)n(C)n1,154 to 155
17,COc1ccccc1-n1c(=O)[nH]c2c(C(N)=O)nc(-c3cccc4ncccc34)nc21,335 to 337
18,NC(=NCC(F)(F)F)Nc1ccnc(SCCCNC(=O)c2ccco2)n1,127 to 129
19,Clc1cccc(Cl)c1Cn1c(-c2ccc3c(c2)OCO3)nc2ccccc21,187 to 189
20,CCOC(=O)C(CCc1ccccc1)NC1CSC(c2ccsc2)CN(CC(=O)O)C1=O (stereo not given),165
21,CC(=O)c1cccc(NC(=O)c2ccc3c(c2)CC(CSCc2ccccc2)O3)c1O (stereo not given),119 to 121

# Further lines, results first:
row,melting point [°C],Compound
1,121 to 124,N#CN1Cc2ccccc2-c2ccccc2C1
2,105 to 107,CC(C)(C)OC(=O)NCc1ccc(C2(C)OCCO2)cc1
3,62 to 63.5,CCCN(CCC)C(=O)n1cnc(S(=O)(=O)CC(C)C)n1
4,32 to 44,CC(C)C1(C)CC(=O)CC(C)(C)N1OC(C)(C)C#N (stereo not given)
5,94,O=C1CCC(c2ccc(-c3ccc([N+](=O)[O-])cc3F)cc2)O1 (stereo not given)
6,224 to 225,O=C(NCc1ccccn1)c1cc(-n2cnn(Cc3ccc(F)cc3)c2=O)n[nH]1
7,115 to 118,O=C1C(c2cc3c(cc2O)OCCO3)c2c(F)cccc2N1C(c1ccccc1)c1ccccc1 (stereo not given)
8,200 to 202,CC(CCCc1ccccc1)c1cc2oc(=O)c3c(c2cc1O)C(=O)CCC3 (stereo not given)
9,86 to 87,O=S(=O)(Nc1cccc(CCOCc2csc(-c3ccccc3Cl)n2)c1)C(F)(F)F
10,102,O=S1CCON=C1c1ccc(Cl)s1 (stereo not given)
11,258,COC(=O)Nc1nc2ccc(OS(=O)(=O)c3ccc(-n4ccnc4)cc3)cc2[nH]1
12,84 to 86,N#Cc1cccc(Oc2ncccc2OCCCc2ccncc2O)c1
13,152 to 154,COC(=O)c1c(C(=O)OC)c2n(c1C)Cc1ccccc1C2
14,245 to 247,O=C(O)C1CCN(c2cc(-c3ccc(Cl)cc3)nc3ccccc23)CC1
15,146 to 149,CCOC(=O)C(C(=O)Nc1ccc(Br)cc1C)=S(C)C
16,76 to 82,CC(C)(C)OC(=O)CN(CC(=O)O)CC(=O)OC(C)(C)C

row,melting point [°C],Compound
1,78 to 79,CCc1ccc(OC)c(-c2cc(C(C)(C)C)c(O)c(C(C)(C)C)c2)c1
2,152 to 153,CCCc1c(OCc2ccc(C(=O)O)cc2OCC)ccc(C(C)=O)c1O
3,125 to 126,CC(=O)Nc1ccc(C(=O)Nc2ccccc2NC(=O)CNC(=O)OC(C)(C)C)cc1
4,101 to 102,[N-]=[N+]=NC[C@H]1CN(c2ccc(N3C[C@@H]4C[C@H]3CO4)c(F)c2)C(=O)O1
5,> 260,COc1cc(OC)c(-c2nc3cccnc3[nH]2)cc1C=CC(=O)c1ccc(S(N)(=O)=O)cc1
6,82 to 83,CC(C)c1nn(-c2ccc(C(F)(F)F)cn2)cc1CCCOc1cccc(CC(=O)O)c1
7,254 to 258,NS(=O)(=O)c1cc(Br)c2c(c1)S(=O)(=O)NC(C1CCCCC1)N2 (stereo not given)
8,84 to 86,CC(N1CCN(c2ncn(Cc3ccc(C(C)(C)C)cc3)n2)CC1)C(O)(Cn1cncn1)c1ccc(F)cc1F (stereo not given)
9,119 to 121,CN(CC(C)(C)[N+](=O)[O-])c1ccc(N(C)CC(C)(C)[N+](=O)[O-])cc1
10,80,CCCCCCCCCCOc1ccc(C(=O)c2ccc(OC(=O)[C@H]3CCCO3)cc2)cc1
11,115 to 116,Cc1nc(C(F)(F)F)ccc1NC(=NC#N)NC(NC(=O)c1ccc(Cl)cc1)C(C)(Cl)Cl (stereo not given)
12,219 to 221,O=C(O)c1ccc(OCC2CN(C(=O)c3ccccc3)C(=O)O2)cc1 (stereo not given)
13,191,COc1cc(OC)cc(C2(O)C(=O)Nc3ccc(Cl)cc32)c1 (stereo not given)
14,112,CCC(=O)c1cc(-c2cccc(O)c2)cs1
15,197 to 202,N#Cc1nn(-c2c(Cl)cc(-c3ccc(C(F)(F)F)cc3)cc2Cl)c(N)c1S(=O)(=O)C(F)(F)F
16,74,CN(CCOc1ccc([N+](=O)[O-])cc1)CCc1ccc([N+](=O)[O-])cc1
